Results published in publication PMC10368966, “Safety and efficacy of AK0529 in respiratory syncytial virus‐infected infant patients: A phase 2 proof‐of‐concept trial” (Influenza and Other Respiratory Viruses, 2023).
Entries after “also recorded” stand apart in the source; their conditions may differ. Like-named read-outs stand apart in the source and are kept apart here. Marks after values point to notes of the source that are not given here.

Tests used:
RSV [1] = system: RSV; set-up: method as in PMID 31194544; conditions: orally administered ref 9; cited from earlier work
[2] = Phase 2 study: safety and tolerability (adverse events); type: in vivo, human (infants)
Protocol: Safety and tolerability was evaluated by clinical assessment of safety data, including laboratory data, electrocardiographic data, vital signs, and adverse events (AEs).
(§1) Clinical safety and tolerability were assessed on the safety population, comprising all subjects who received ≥1 dose of study drug. Clinical variables were evaluated in the full analysis population, which included all subjects who received a dose of study drug and for whom ≥1 post‐treatment assessment was available. Pharmacokinetic analysis was performed on those subjects in the safety population for whom both pre‐ and post‐dose samples were available.

RSV infection = assay: Phase 2 study: Wang Respiratory Score; type: in vivo, human (infants); conditions: for Hodges–Lehmann estimation of between-group difference in Wang Respiratory Score: Part 2, 2 mg/kg vs placebo, 96 h
[3] = Phase 2 study: population pharmacokinetics of plasma concentrations; type: in vivo, human (infants); conditions: for Tmax / AUC(0-t) / Cmax / AUC(0-inf) / half-life: human, plasma; for Cmax: read-out: Cmax mean (CV %); for AUC(0-inf): read-out: AUC0–∞ mean (CV %); for half-life: read-out: t½ mean (CV %) (converted)
Protocol: Individual plasma concentrations of the active drug were measured, and PK were determined using nonlinear mixed‐effect models. In all cases, when new data were available, the updated model was used for evaluation under the assumption of an allometric coefficient of 0.75 and incorporation of CYP maturation. Using a Population PK (Pop‐PK) analysis approach, AUC0–∞, clearance (CL/F), volume of distribution (Vc/F), and other PK parameters were estimated for AK0529. Maximum plasma concentration (Cmax) was computed from the predicted profiles.
as §1

RSV [4] = assay: Phase 2 study: RSV viral load by quantitative reverse-transcription PCR on nasopharyngeal swab or aspirate; type: in vivo, human (infants); conditions: for greater reduction in median viral load than placebo: Part 2, 2 mg/kg bid, not statistically significant
Description: This was a double‐blind, placebo‐controlled, randomized, multicenter study with the primary objective to evaluate the safety and tolerability of single and multiple oral doses of AK0529. Secondary objectives were to evaluate the effect of AK0529 on Wang Respiratory Score, to determine the effects of treatment on viral load, and to characterize the pharmacokinetics (PK) of single and multiple AK0529 doses.
The study consisted of two parts. In both parts, subjects were randomized in a 2:1 ratio to receive active treatment or placebo. Subjects were stratified by age (6 to 24 months in Cohorts 1 and 3, and 1 to <6 months in Cohorts 2 and 4).
Part 1 was a single‐dose study with a 7‐day follow‐up. The doses administered to patients in Cohort 1 included 4, 2, and 1 mg/kg. The Safety Review Committee (SRC) reviewed PK and safety data after each of the sets of three patients, before further enrollment of subjects, and recommended 0.5 and 1 mg/kg as the doses for patients in Cohort 2.
In Part 2, subjects received AK0529 or placebo over 5 days and were followed until day 14 post‐initial dose. The doses in Cohort 3 included 1 and 0.5 mg/kg bid. In Cohort 4, the doses included 2, 1 and 0.5 mg/kg bid.

[5] = set-up: method as in Study AK0529-1001; conditions: single doses of 100 mg and above ref Study AK0529-1001; cited from earlier work
[6] = TEAE, preferred term, AK0529 N=49
[7] = TEAE, system organ class, AK0529 N=49
[8] = Part 1, single oral dose 0.5 mg/kg
[9] = Part 1, single oral dose 1.0 mg/kg
[10] = Part 1, single oral dose 2.0 mg/kg
[11] = Part 1, single oral dose 4.0 mg/kg

Cc1ccc2nc(N3CCS(=O)(=O)c4ccccc4C3)nc(NCC3(N)COC3)c2c1 [AK0529, ziresovir]
antiviral efficacy (RSV [1]): demonstrated antiviral efficacy | Subjects with any AEs ([2]; AK0529 all doses N = 49): 25 (51.0%) n (%) | Subjects with any TEAEs ([2]; AK0529 all doses N = 49): 24 (49.0%) n (%) | Subjects with any TEAEs induced withdrawal ([2]; AK0529 all doses N = 49): 0 n (%) | Subjects with any TEAEs leading to death ([2]; AK0529 all doses N = 49): 0 n (%) | Subjects with any drug related TEAEs ([2]; AK0529 all doses N = 49): 3 (6.1%) ^a n (%) | Subjects with any grade ≥3 TEAEs ([2]; AK0529 all doses N = 49): 2 (4.1%) ^c n (%) | Subjects with any serious TEAEs ([2]; AK0529 all doses N = 49, two cases of unrelated pneumonia): 2 (4.1%) ^b n (%) | patients reporting grade ≥1 TEAEs ([2]; AK0529 group 24/49): 49.0% | subjects with Grade 1 TEAE considered drug-related by the investigator ([2]; AK0529 group, three subjects): 6% | patients experiencing a serious TEAE ([2]; AK0529 group, two of 49, none related to drug treatment): 4.1% | withdrawals or deaths because of TEAEs ([2]; AK0529 groups): No withdrawals or deaths; also recorded: none led to death or withdrawal from the study | patients with grade ≥3 treatment-emergent adverse events ([2]; AK0529 groups 2/49): 4.1% | Acute tonsillitis [2, 6]: 1 (2.0%) n (%) | Anemia [2, 6]: 1 (2.0%) n (%) | Aspartate aminotransferase increased [2, 6]: 3 (6.1%) n (%) | Candida infection [2, 6]: 1 (2.0%) n (%) | Conjunctivitis [2, 6]: 1 (2.0%) n (%) | Constipation [2, 6]: 0 n (%) | Dermatitis [2, 6]: 1 (2.0%) n (%) | Dermatitis diaper [2, 6]: 4 (8.2%) n (%) | Diarrhea [2, 6]: 2 (4.1%) n (%) | Epistaxis [2, 6]: 2 (4.1%) n (%) | Erythema of eyelid [2, 6]: 1 (2.0%) n (%) | Eye pruritus [2, 6]: 0 n (%) | Flatulence [2, 6]: 1 (2.0%) n (%) | Gastrointestinal inflammation [2, 6]: 1 (2.0%) n (%) | Hematochezia [2, 6]: 0 n (%) | Hepatitis [2, 6]: 2 (4.1%) n (%) | Hyperkalemia [2, 6]: 2 (4.1%) n (%) | Hyperphosphatemia [2, 6]: 1 (2.0%) n (%) | Impaired gastric emptying [2, 6]: 0 n (%) | Injection site extravasation [2, 6]: 1 (2.0%) n (%) | Leukocytosis [2, 6]: 1 (2.0%) n (%) | Metabolic acidosis [2, 6]: 1 (2.0%) n (%) | Nasopharyngitis [2, 6]: 1 (2.0%) n (%) | Oral candidiasis [2, 6]: 1 (2.0%) n (%) | Otitis media acute [2, 6]: 2 (4.1%) n (%) | Pneumonia [2, 6]: 3 (6.1%) n (%) | Pyrexia [2, 6]: 1 (2.0%) n (%) | Rash [2, 6]: 1 (2.0%) n (%) | Rotavirus test positive [2, 6]: 0 n (%) | Thrombocytosis [2, 6]: 1 (2.0%) n (%) | Transaminases increased [2, 6]: 2 (4.1%) n (%) | Upper respiratory tract infection [2, 6]: 1 (2.0%) n (%) | Urine ketone body present [2, 6]: 1 (2.0%) n (%) | Vomiting [2, 6]: 1 (2.0%) n (%) | Blood and lymphatic system disorders [2, 7]: 3 (6.1%) n (%) | Eye disorders [2, 7]: 1 (2.0%) n (%) | Gastrointestinal disorders [2, 7]: 5 (10.2%) n (%) | General disorders and administration site conditions [2, 7]: 1 (2.0%) n (%) | Hepatobiliary disorders [2, 7]: 2 (4.1%) n (%) | Infections and infestations [2, 7]: 5 (10.2%) n (%) | Injury, poisoning and procedural complications [2, 7]: 1 (2.0%) n (%) | Investigations [2, 7]: 6 (12.2%) n (%) | Metabolism and nutrition disorders [2, 7]: 4 (8.2%) n (%) | Respiratory, thoracic and mediastinal disorders [2, 7]: 6 (12.2%) n (%) | Skin and subcutaneous tissue disorders [2, 7]: 6 (12.2%) n (%) | overall tolerability ([2]; hospitalized RSV-infected infant patients): well tolerated | Bacterial infection ([2]; human, in vivo): 0 n (%) | median Wang Respiratory Score change (RSV infection; Part 1, single dose, baseline to 24 h, one-sided p = 0.004 combined AK0529 groups vs placebo): decreased from baseline to 24 h in a dose‐related manner | median reduction in Wang Respiratory Score from baseline (RSV infection; Part 2, 2 mg/kg bid, baseline to 96 h, 95% CI −4.51, −2.03, placebo −2.0, one-sided p = 0.031): −4.0 | Hodges–Lehmann estimation of between-group difference in Wang Respiratory Score (RSV infection; full analysis population, 95% CI −2, 1): −1 | Hodges–Lehmann estimation of between-group difference in Wang Respiratory Score (RSV infection; two cases of bacterial pneumonia excluded, 95% CI −2, 0, p = 0.009): −1 | patients achieving disease remission (Wang Respiratory Score ≤1) (RSV infection; post-hoc, 2 mg/kg bid, by Day 5, 8/11 patients, placebo 31%, p 0.0412): 73% | elimination half-life in subjects aged <6 months ([3]; Part 1, compared with older subjects): slightly longer | time to reach Cmax ([3]; Part 1, single doses except 4 mg/kg): around 4 h | change in AUC with dose ([3]; Part 1, single doses up to 4 mg/kg, no apparent plateau): dose‐dependent increase | targeted drug exposure ([3]; Part 2, 2 mg/kg bid): reached | dose proportionality of mean Cmax and AUCτ ([3]; Part 2, across the dose range tested): approximate dose proportionality | increase in AUCτ from Days 1 to 5 (accumulation) ([3]; Part 2, bid dosing): approximately 1.5 fold | median trough ([3]; Part 2, bid dosing): 12 h | Tmax ([3]; oral, Part 2, Days 1 and 5, read-out: median tmax): 2.5 to 3.8 h | AUC(0-t) ([3]; oral, Part 1, single doses up to 4 mg/kg, read-out: AUC0–24): ≤ 7.78 µg·h/mL | Tmax ([3]; po, 0.5 mg/kg, Part 1, single oral dose 0.5 mg/kg, read-out: tmax median (range)): 4.5 h | Tmax ([3]; po, 1 mg/kg, Part 1, single oral dose 1.0 mg/kg, read-out: tmax median (range)): 4.3 h | Tmax ([3]; po, 2 mg/kg, Part 1, single oral dose 2.0 mg/kg, read-out: tmax median (range)): 3.3 h | Tmax ([3]; po, 4 mg/kg, Part 1, single oral dose 4.0 mg/kg, read-out: tmax median (range)): ~2 h | Cmax ([3]; Part 1, single oral dose 0.5 mg/kg, N 4, all younger than 6 months): 0.158 µg/mL | AUC(0-t) ([3]; Part 1, single oral dose 0.5 mg/kg, read-out: AUC0–24 mean (CV %)): 1.77 µg·h/mL | AUC(0-inf) [3, 8]: 2.06 µg·h/mL | half-life [3, 8]: 7.7 h | Cmax ([3]; Part 1, single oral dose 1.0 mg/kg, N 6): 0.302 µg/mL | AUC(0-t) ([3]; Part 1, single oral dose 1.0 mg/kg, read-out: AUC0–24 mean (CV %)): 2.89 µg·h/mL | AUC(0-inf) [3, 9]: 3.15 µg·h/mL | half-life [3, 9]: 5.7 h | Cmax ([3]; Part 1, single oral dose 2.0 mg/kg, N 4): 0.375 µg/mL | AUC(0-t) ([3]; Part 1, single oral dose 2.0 mg/kg, read-out: AUC0–24 mean (CV %)): 3.79 µg·h/mL | AUC(0-inf) [3, 10]: 4.2 µg·h/mL | half-life [3, 10]: 6.2 h | Cmax ([3]; Part 1, single oral dose 4.0 mg/kg, N 3 incl. one subject of Study AK0529-1002): 0.888 µg/mL | AUC(0-t) ([3]; Part 1, single oral dose 4.0 mg/kg, read-out: AUC0–24 mean (CV %)): 7.78 µg·h/mL | AUC(0-inf) [3, 11]: 8.28 µg·h/mL | half-life [3, 11]: 6 h | reductions in viral load relative to placebo (RSV [4]; Part 1, 24 h after a single dose): < 1 log10 PFUe/mL | greater reduction in median viral load than placebo (RSV [4]; 72 h): 1.25 log10 PFUe/mL | greater reduction in median viral load than placebo (RSV [4]; 96 h post-dose): 1.73 log10 PFUe/mL | mean plasma concentration levels at 12 hours post-dose [5]: > 0.05 µg/mL
